What was measured:
Zoysia tenuifolia = assay: Foliage treatment of Zoysia tenuifolia sod in pots: grass height and dry weight of shoots and stems; assay type: in vivo; conditions: foliage treatment 150 L/10 a; for Grass height: 26 days after treatment; for Dry weight of stems: harvested 4 months after treatment
Procedure: A commercially available Zoysia tenuifolia sod was cut to a size of 10×10 cm. Uniform volcanic ash soil (andosol) was introduced into a vessel (1/44,444×10 a) in a sufficient amount per pot, and a chemical fertilizer (N—P—K=8-8-8) was applied thereon in an amount, in terms of nitrogen, of 2.6 kg-N/10 a. The cut Zoysia tenuifolia sod was transplanted into the pot. […] The grass height was measured 26 days after the treatment, and thereby the dwarfing effect was investigated.

bentgrass = assay: Foliage treatment of bentgrass sod in pots: leaf count and L*a*b* colour; assay type: in vivo; conditions: 30 days after treatment, 5-aminolevulinic acid hydrochloride 200 mg/10 a and/or prohexadione calcium salt 12.5 g/10 a; for Color system L* / Color system b* / Color system a*: colorimeter; for Color system a*: more negative = greener; for Plant count of lawn grass: foliage treatment 150 L/10 a
Excerpt: A commercially available bentgrass sod was cut into a circular form having a diameter of 10 cm. Uniform volcanic ash soil (andosol) was introduced into a vessel (1/17,500×10 a) in a sufficient amount per pot, and a liquid fertilizer (Hyponica) was applied thereon in an amount, in terms of nitrogen, of 3 kg-N/10 a. The cut bentgrass sod was transplanted into the pot.

[1] = 5-aminolevulinic acid hydrochloride 600 mg/10 a and/or paclobutrazol 36 g/10 a
[2] = 5-aminolevulinic acid hydrochloride 600 mg/10 a and/or flurprimidol 84 g/10 a
[3] = 5-aminolevulinic acid hydrochloride 600 mg/10 a and/or prohexadione calcium salt 20 g/10 a
[4] = 5-aminolevulinic acid hydrochloride 600 mg/10 a and/or trinexapac-ethyl 20 g/10 a

SMILES | Dry weight of shoots (Zoysia tenuifolia; [1]) | Grass height (Zoysia tenuifolia; [1]) | Dry weight of stems (Zoysia tenuifolia; [1]) | Color system L* (bentgrass) | Color system b* (bentgrass) | Color system a* (bentgrass) | Plant count of lawn grass (bentgrass) | Dry weight of shoots (Zoysia tenuifolia; [2]) | Dry weight of shoots (Zoysia tenuifolia; [3]) | Dry weight of shoots (Zoysia tenuifolia; [4]) | Grass height (Zoysia tenuifolia; [2]) | Grass height (Zoysia tenuifolia; [3]) | Grass height (Zoysia tenuifolia; [4]) | Dry weight of stems (Zoysia tenuifolia; [2]) | Dry weight of stems (Zoysia tenuifolia; [3]) | Dry weight of stems (Zoysia tenuifolia; [4])
CC(C)(C)[C@@H](O)[C@@H](Cc1ccc(Cl)cc1)n1cncn1 (racemic) [paclobutrazol, (2RS,3RS)-1-(4-chlorophenyl)-4,4-dimethyl-2-(1H-1,2,4-triazol-1-yl)pentan-3-ol] | 0.81 g | 3.5 cm | 14.8 g |  |  |  |  |  |  |  |  |  |  |  |  | 
Cl.NCC(=O)CCC(=O)O [5-aminolevulinic acid hydrochloride] | 0.90 g | 4.2 cm | 12.0 g | 34.0 | 17.6 | −8.8 | 54.2 plants/9 cm^2 | 0.90 g | 0.90 g | 0.90 g | 4.2 cm | 4.2 cm | 4.2 cm | 12.0 g | 12.0 g | 12.0 g
CCC(=O)C1=C([O-])CC(C(=O)[O-])CC1=O.[Ca+2] (centres unmarked) [Prohexadione calcium salt, calcium 3-oxido-5-oxo-4-propionyl-3-cyclohexene carboxylate] |  |  |  | 33.2 | 17.0 | −8.9 | 65.5 plants/9 cm^2 |  | 0.72 g |  |  | 3.5 cm |  |  | 11.3 g | 
CCOC(=O)C1CC(=O)C(=C(O)C2CC2)C(=O)C1 (stereo not drawn) [Trinexapac-ethyl, ethyl=4-cyclopropyl-α-hydroxymethylene)-3,5-dioxocyclohexane carboxylate] |  |  |  |  |  |  |  |  |  | 0.44 g |  |  | 3.5 cm |  |  | 12.8 g

Source: US8916502B2, “Agent for improving lawn grass qualities” (Cosmo Oil Co., Ltd., priority 2008, dated 2014)
